Assay [1] is described as follows: caspase activation in A1-2A-BIM fibroblasts – cell-based, MEF A1-2A-BIM, luminescence, dry powder, set 2, Bcl2-A1 inhibitor project, dose response (AID 504345). To be noted: MEF A1-2A-BIM cells, caspase 3/7 luminescence; at 35 µM (top of the series).
The test system of assay [2] is MEF A1-2A-BIM cells, caspase 3/7 luminescence. The assay is described as above.

The values that follow come from PubChem BioAssay AID504345 (Broad Institute, 2011).

Calls of active or inactive are those of the source.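 The calls were made as follows: active = fitted curve climbs past 10% caspase activation, relative to the positive control, at or below the top valid tested dose; inactive = the rest, including activity in the opposite direction.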

Consider `O=c1oc2ccccc2c(Cl)c1[N+](=O)[O-]`, for which, in assay [1], the caspase activation is -8.87% (inactive).
Still for that read-out and setting: next, `Cn1c(=O)c([N+](=O)[O-])c(Oc2ccccc2)c2ccccc21`: 4.18% (inactive); `Cc1ccc(Sc2cc(=O)n(C)c3ccccc23)cc1`: -11.4% (inactive).
On to `Cn1c(=O)c([N+](=O)[O-])c(-n2cnc3ccccc32)c2ccccc21`, for which the AC10 in assay [2] is 9.42 µM.
Regarding `C/C1=C/C(=O)O[C@@H]2C[C@@H](CC[C@H](C)/C=C\CC1)O[C@@](O)(C1CSC(=O)N1)C2` (stereo partly specified), in assay [1], the caspase activation is 9.53% (inactive).
As to `Cn1c(=O)c([N+](=O)[O-])c(Nc2ccc(Cl)cc2)c2ccccc21`, the caspase activation in assay [1] was -1.07% (inactive).
In the case of `Cc1ccc(Sc2c([N+](=O)[O-])c(=O)n(C)c3ccccc23)cc1`, the AC10 in assay [2] was 4.06 µM.
Consider `O=[N+]([O-])c1cnc2ccccc2c1Sc1ccccc1`, for which the caspase activation in assay [1] is -2.86% (inactive).
Turning to `Cc1ccc(Nc2c([N+](=O)[O-])c(=O)oc3ccccc23)cc1`, the caspase activation in assay [1] is 1.97% (inactive).
Regarding `O=C(Oc1cccc(/C=N/Nc2nc(Nc3ccccc3)nc(N3CCOCC3)n2)c1)c1ccco1`, the caspase activation in assay [1] is 6.44% (inactive).
Regarding `CCSc1c([N+](=O)[O-])c(=O)oc2ccccc12`, in assay [1], the caspase activation was -6.49% (inactive).
Still for that read-out and setting: in the case of `CCOC(=O)N1CCN(c2c([N+](=O)[O-])c(=O)n(C)c3ccccc23)CC1` it was -2.42% (inactive); in that of `CN1C(=O)C(C)(C)N(Cc2ccccc2)c2ccccc21`, 0.119% (inactive); in that of `Cc1ccc(Sc2c([N+](=O)[O-])c(=O)oc3ccccc23)cc1`, -5.88% (inactive).
As for `CCOCCCNc1c([N+](=O)[O-])c(=O)n(C)c2ccccc12`, the caspase activation in assay [1] was 2.29% (inactive).
As to `O=c1oc2ccccc2c(N2CCCCC2)c1[N+](=O)[O-]`, the caspase activation in assay [1] was -1.93% (inactive).
Regarding `Cc1ccc(Nc2c([N+](=O)[O-])c(=O)n(C)c3ccccc23)cc1`, in assay [1], the caspase activation is -2.07% (inactive).
As to `O=c1oc2ccccc2c(Sc2ccccc2)c1[N+](=O)[O-]`, in assay [1], the caspase activation was -9.2% (inactive).
As to `Cc1ccc(Sc2c([N+](=O)[O-])cnc3ccccc23)cc1`, the AC10 in assay [2] was 8.65 µM.
In the case of `Cn1c(=O)c([N+](=O)[O-])c(Cl)c2ccccc21`, the AC10 in assay [2] was 0.632 µM.
As for `O=c1oc2ccccc2c(Nc2cc(Cl)cc(Cl)c2)c1[N+](=O)[O-]`, the caspase activation in assay [1] was -2.92% (inactive).
